# Measured values: patent publication US20220062243A1, “P14-Kinase Inhibitors with Anti-Cancer Activity” (The Board of Trustees of the Leland Stanford Junior …, priority 2019, published 2022)
# Target: PI4K-IIIβ (Homo sapiens, UniProt Q9UBF8)
# Assay: PI-kinase assay (membrane capture assay for lipid kinase activity), PI4KIIIβ
# Assay type: biochemical
# Conditions: read-out: PI4KIIIβ kinase activity (IC50 class)
# Protocol: PI4-kinase inhibition can be determined by a kinase activity assay, e.g., by an assay that determines the level of incorporation of radiolabeled phosphate from [γ-^32P]-ATP into a substrate molecule after treatment with a subject compound, relative to a control, by measuring the beta-particle emission rate using a scintillation counter or phosphorimaging.
# PI-kinase assay: Compounds are tested in C.1.1. PI kinase assays as described by Shokat et al., “A membrane capture assay for lipid kinase activity.” Nat. Protoc. […] Selected compounds of Table 1 and 2 were prepared and tested for inhibition activity in a variety of kinase assays.
# Sequence of PI4K-IIIβ (Q9UBF8 whole entry): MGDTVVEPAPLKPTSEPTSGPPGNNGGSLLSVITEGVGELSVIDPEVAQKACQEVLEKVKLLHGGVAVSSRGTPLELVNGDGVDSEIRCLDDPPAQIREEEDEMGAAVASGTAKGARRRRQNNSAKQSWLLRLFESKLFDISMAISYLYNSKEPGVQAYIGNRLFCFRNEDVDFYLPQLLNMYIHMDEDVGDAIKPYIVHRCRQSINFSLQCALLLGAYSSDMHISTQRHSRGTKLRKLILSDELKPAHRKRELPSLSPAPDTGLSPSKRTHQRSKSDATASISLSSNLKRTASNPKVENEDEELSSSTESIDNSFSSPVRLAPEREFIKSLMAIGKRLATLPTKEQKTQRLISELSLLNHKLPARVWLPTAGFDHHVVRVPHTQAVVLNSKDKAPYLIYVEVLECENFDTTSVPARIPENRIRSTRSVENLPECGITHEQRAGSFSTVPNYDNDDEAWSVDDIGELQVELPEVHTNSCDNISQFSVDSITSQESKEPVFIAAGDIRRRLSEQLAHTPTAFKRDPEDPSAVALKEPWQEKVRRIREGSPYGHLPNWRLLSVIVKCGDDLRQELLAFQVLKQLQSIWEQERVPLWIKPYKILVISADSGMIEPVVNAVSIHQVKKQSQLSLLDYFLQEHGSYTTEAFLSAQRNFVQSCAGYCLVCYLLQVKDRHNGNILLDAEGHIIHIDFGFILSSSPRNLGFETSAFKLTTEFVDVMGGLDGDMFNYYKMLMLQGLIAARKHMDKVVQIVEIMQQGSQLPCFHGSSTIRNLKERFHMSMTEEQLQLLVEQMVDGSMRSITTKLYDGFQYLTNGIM
row,SMILES,IC50 [nM]
1,"COc1ccc(-c2sc(NCC3CCCCC3)nc2C)cc1S(=O)(=O)NC1CC1 [Compound S-127, 5-[2-(cyclohexylmethylamino)-4-methyl-thiazol-5-yl]-N-cyclopropyl-2-methoxy-benzenesulfonamide]",100 to 1000
2,"COc1ccc(-c2sc(NCC3CCCCC3)nc2C)cc1S(=O)(=O)NCC1CCCCC1 [Compound S-128, N-(cyclohexylmethyl)-5-[2-(cyclohexylmethylamino)-4-methyl-thiazol-5-yl]-2-methoxy-benzenesulfonamide]",100 to 1000
3,"COc1ccc(-c2sc(NC3CCCCC3)nc2C)cc1S(=O)(=O)NC1CCCC1 [Compound S-129, 5-[2-(cyclohexylamino)-4-methyl-thiazol-5-yl]-N-cyclopentyl-2-methoxy-benzenesulfonamide]",100 to 1000
4,"COc1ccc(-c2sc(NC3CCCCC3)nc2C)cc1S(=O)(=O)NC1CCCCCC1 [Compound S-131, N-cycloheptyl-5-[2-(cyclohexylamino)-4-methyl-thiazol-5-yl]-2-methoxy-benzenesulfonamide]",100 to 1000
5,"COc1ccc(-c2sc(N[C@H](C)C3CCCCC3)nc2C)cc1S(=O)(=O)NC1CCNCC1 [Compound S-147, 5-[2-[[(1R)-1-cyclohexylethyl]amino]-4-methyl-thiazol-5-yl]-2-methoxy-N-(4-piperidyl)benzenesulfonamide]",< 100
6,"COc1ccc(-c2sc(N[C@H](C)C3CCCCC3)nc2C)cc1S(=O)(=O)NC1CCCNC1 (stereo partly drawn) [Compound S-148, 5-[2-[[(1R)-1-cyclohexylethyl]amino]-4-methyl-thiazol-5-yl]-2-methoxy-N-(3-piperidyl)benzenesulfonamide]",< 100
7,"COc1ccc(-c2sc(NC(=O)CC3CCCC3)nc2C)cc1S(=O)(=O)N[C@H]1CC[C@H](O)CC1 [Compound S-151, 2-cyclopentyl-N-[5-[3-[(4-hydroxycyclohexyl)sulfamoyl]-4-methoxy-phenyl]-4-methyl-thiazol-2-yl]acetamide]",< 100
8,COc1ccc(-c2sc(NC(=O)CC3CCCC3)nc2C)cc1S(=O)(=O)NCCCCO [Compound S-152],< 100
9,"COc1ccc(-c2sc(NC(=O)CC3CCCC3)nc2C)cc1S(=O)(=O)N1CC[C@@H](O)C1 [Compound S-153, 2-cyclopentyl-N-[5-[3-[(3R)-3-hydroxypyrrolidin-1-yl]sulfonyl-4-methoxy-phenyl]-4-methyl-thiazol-2-yl]acetamide]",< 100
10,"COc1ccc(-c2sc(NC(=O)CCC3CCCC3)nc2C)cc1S(=O)(=O)N[C@H]1CC[C@H](O)CC1 [Compound S-156, 3-cyclopentyl-N-[5-[3-[(4-hydroxycyclohexyl)sulfamoyl]-4-methoxy-phenyl]-4-methyl-thiazol-2-yl]propanamide]",< 100
11,"COc1ccc(-c2sc(NC(=O)CCC3CCCC3)nc2C)cc1S(=O)(=O)NC1CCNCC1 [Compound S-160, 3-cyclopentyl-N-[5-[4-methoxy-3-(4piperidylsulfamoyl)phenyl]-4-methyl-thiazol-2-yl]propanamide]",< 100
12,"COc1ccc(-c2sc(NC3CCCCC3)nc2C)cc1S(=O)(=O)N[C@H]1CC[C@H](O)CC1 [Compound S-166, 5-[2-(cyclohexylamino)-4-methyl-thiazol-5-yl]-N-(4-hydroxycyclohexyl)-2-methoxy-benzenesulfonamide]",< 100
13,"COc1ccc(-c2sc(NC3CCCCC3)nc2C)cc1S(=O)(=O)N[C@H]1CC[C@@H](O)CC1 [Compound S-167, 5-[2-(cyclohexylamino)-4-methyl-thiazol-5-yl]-N-(4-hydroxycyclohexyl)-2-methoxy-benzenesulfonamide]",< 100
14,"COc1ccc(-c2sc(NC(=O)CC3CCOCC3)nc2C)cc1S(=O)(=O)Nc1cc(C)cc(O)c1 [Compound S-169, N-[5-[3-[(3-hydroxy-5-methyl-phenyl)sulfamoyl]-4-methoxy-phenyl]-4-methyl-thiazol-2-yl]-2-tetrahydropyran-4-yl-acetamide]",< 100

# Now from value to compound:
row,IC50 [nM],SMILES
1,< 100,"COc1ccc(-c2sc(NC(=O)CC3CCCC3)nc2C)cc1S(=O)(=O)Nc1ccc(O)cc1 [Compound S-1, 2-cyclopentyl-N-[5-[3-[(4-hydroxyphenyl)sulfamoyl]-4-methoxy-phenyl]-4-methyl-thiazol-2-yl]acetamide]"
2,< 100,"COc1ccc(-c2sc(NC(=O)C3CCCC3)nc2C)cc1S(=O)(=O)N[C@H]1CC[C@H](O)CC1 [Compound S-9, N-[5-[3-[(4-hydroxycyclohexyl)sulfamoyl]-4-methoxy-phenyl]-4-methyl-thiazol-2-yl]cyclopentanecarboxamide]"
3,< 100,"COc1ccc(-c2sc(NC(=O)C3CCCC3)nc2C)cc1S(=O)(=O)Nc1ccc(CO)cc1 [Compound S-41, N-[5-[3-[[4-(hydroxymethyl)phenyl]sulfamoyl]-4-methoxy-phenyl]-4-methyl-thiazol-2-yl]cyclopentanecarboxamide]"
4,< 100,"COc1ccc(-c2sc(NC(=O)Cc3ccccc3)nc2C)cc1S(=O)(=O)Nc1ccc(O)cc1 [Compound S-49, N-[5-[3-[(4-hydroxyphenyl)sulfamoyl]-4-methoxy-phenyl]-4-methyl-thiazol-2-yl]-2-phenyl-acetamide]"
5,< 100,"COc1ccc(-c2sc(NC3CCCCCC3)nc2C)cc1S(=O)(=O)Nc1c(C)cccc1C [Compound S-98, 5-[2-(cycloheptylamino)-4-methyl-thiazol-5-yl]-N-(2,6-dimethylphenyl)-2-methoxy-benzenesulfonamide;2,2,2-trifluoroacetic acid]"
6,< 100,"COc1ccc(-c2sc(NCC3CCCCC3)nc2C)cc1S(=O)(=O)NC1CCNCC1 [Compound S-123, 5-[2-(cyclohexylmethylamino)-4-methyl-thiazol-5-yl]-2-methoxy-N-(4-piperidyl)benzenesulfonamide]"
7,< 100,"COc1ccc(-c2sc(NCC3CCCCC3)nc2C)cc1S(=O)(=O)NC1CCN(C2CCCC2)CC1 [Compound S-133, 5-[2-(cyclohexylmethylamino)-4-methyl-thiazol-5-yl]-N-(1-cyclopentyl-4-piperidyl)-2-methoxy-benzenesulfonamide]"
8,< 100,"COc1ccc(-c2sc(NCC3CCCCC3)nc2C)cc1S(=O)(=O)NC1CCN(C(C)C)CC1 [Compound S-134, 5-[2-(cyclohexylmethylamino)-4-methyl-thiazol-5-yl]-N-(1-isopropyl-4-piperidyl)-2-methoxy-benzenesulfonamide]"
9,< 100,"COc1ccc(-c2sc(NCC3CCCCC3)nc2C)cc1S(=O)(=O)NC1CCN(C2CC2)CC1 [Compound S-135, 5-[2-(cyclohexylmethylamino)-4-methyl-thiazol-5-yl]-N-(1-cyclopropyl-4-piperidyl)-2-methoxy-benzenesulfonamide]"
10,< 100,"COc1ccc(-c2sc(NCC3CCCCC3)nc2C)cc1S(=O)(=O)NC1CCN(C2CCCCC2)CC1 [Compound S-136, 5-[2-(cyclohexylmethylamino)-4-methyl-thiazol-5-yl]-N-(1-cyclohexyl-4-piperidyl)-2-methoxy-benzenesulfonamide]"
11,< 100,"COc1ccc(-c2sc(N[C@H](C)CC3CCCCC3)nc2C)cc1S(=O)(=O)NC1CCNCC1 [Compound S-145, 5-[2-[[(1R)-2-cyclohexyl-1-methyl-ethyl]amino]-4-methyl-thiazol-5-yl]-2-methoxy-N-(4-piperidyl)benzenesulfonamide]"
